Targets include Mu-type opioid receptor (Homo sapiens, UniProt P35372); Motilin receptor (Homo sapiens, UniProt O43193); D(3) dopamine receptor (Homo sapiens, UniProt P35462).
Assay [1] has as its target T1, Alpha-2A adrenergic receptor (Homo sapiens, UniProt P08913).
T1 sequence (P08913 whole entry): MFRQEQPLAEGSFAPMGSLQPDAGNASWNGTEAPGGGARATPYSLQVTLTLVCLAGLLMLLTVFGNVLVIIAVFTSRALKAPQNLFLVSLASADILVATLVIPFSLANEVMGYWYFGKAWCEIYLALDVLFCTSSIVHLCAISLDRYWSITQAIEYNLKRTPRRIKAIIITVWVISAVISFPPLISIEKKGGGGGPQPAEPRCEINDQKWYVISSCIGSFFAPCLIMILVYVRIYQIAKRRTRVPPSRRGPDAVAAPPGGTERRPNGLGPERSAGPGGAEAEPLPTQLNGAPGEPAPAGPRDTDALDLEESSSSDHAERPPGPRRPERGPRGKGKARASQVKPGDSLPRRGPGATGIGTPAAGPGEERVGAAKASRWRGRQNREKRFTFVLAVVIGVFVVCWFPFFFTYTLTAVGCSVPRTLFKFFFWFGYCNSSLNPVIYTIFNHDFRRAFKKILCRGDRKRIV

Assay [2] addresses T2, 5-hydroxytryptamine receptor 1A (Homo sapiens, UniProt P08908).
T2 sequence (P08908 whole entry): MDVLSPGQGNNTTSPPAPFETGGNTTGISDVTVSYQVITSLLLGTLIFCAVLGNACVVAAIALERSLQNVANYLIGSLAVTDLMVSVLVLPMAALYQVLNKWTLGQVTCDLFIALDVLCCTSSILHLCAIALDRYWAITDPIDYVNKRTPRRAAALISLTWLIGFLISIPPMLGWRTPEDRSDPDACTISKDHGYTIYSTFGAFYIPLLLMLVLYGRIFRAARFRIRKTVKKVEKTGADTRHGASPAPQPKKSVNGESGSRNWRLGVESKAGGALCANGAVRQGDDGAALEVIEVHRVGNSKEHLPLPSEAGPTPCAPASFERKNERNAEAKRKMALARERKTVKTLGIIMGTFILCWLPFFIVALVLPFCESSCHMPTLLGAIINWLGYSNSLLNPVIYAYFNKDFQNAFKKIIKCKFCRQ
Type of assay: functional, cell-based.

In another assay the target is Prothrombin (Homo sapiens, UniProt P00734). Type of assay: functional.
The target of assay [3] is Gamma-aminobutyric acid receptor subunit alpha-1/alpha-2/beta-2/gamma-2 (Homo sapiens, UniProt P14867+P18507+P47869+P47870). Type of assay: protein-complex assay.
Chain of Gamma-aminobutyric acid receptor subunit alpha-1/alpha-2/beta-2/gamma-2 (P14867 whole entry): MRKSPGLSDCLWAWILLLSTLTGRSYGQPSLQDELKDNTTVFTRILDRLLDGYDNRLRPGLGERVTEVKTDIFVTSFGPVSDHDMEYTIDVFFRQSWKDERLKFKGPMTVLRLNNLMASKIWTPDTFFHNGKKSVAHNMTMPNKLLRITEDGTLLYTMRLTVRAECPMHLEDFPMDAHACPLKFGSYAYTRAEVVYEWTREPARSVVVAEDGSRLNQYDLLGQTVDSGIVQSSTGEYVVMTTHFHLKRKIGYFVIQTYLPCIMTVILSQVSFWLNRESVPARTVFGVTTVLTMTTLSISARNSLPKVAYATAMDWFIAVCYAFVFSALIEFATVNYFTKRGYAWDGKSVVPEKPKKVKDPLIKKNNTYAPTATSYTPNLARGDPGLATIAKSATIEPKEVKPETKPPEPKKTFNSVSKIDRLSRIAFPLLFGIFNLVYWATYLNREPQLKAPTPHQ
Chain of Gamma-aminobutyric acid receptor subunit alpha-1/alpha-2/beta-2/gamma-2 (P47870 whole entry): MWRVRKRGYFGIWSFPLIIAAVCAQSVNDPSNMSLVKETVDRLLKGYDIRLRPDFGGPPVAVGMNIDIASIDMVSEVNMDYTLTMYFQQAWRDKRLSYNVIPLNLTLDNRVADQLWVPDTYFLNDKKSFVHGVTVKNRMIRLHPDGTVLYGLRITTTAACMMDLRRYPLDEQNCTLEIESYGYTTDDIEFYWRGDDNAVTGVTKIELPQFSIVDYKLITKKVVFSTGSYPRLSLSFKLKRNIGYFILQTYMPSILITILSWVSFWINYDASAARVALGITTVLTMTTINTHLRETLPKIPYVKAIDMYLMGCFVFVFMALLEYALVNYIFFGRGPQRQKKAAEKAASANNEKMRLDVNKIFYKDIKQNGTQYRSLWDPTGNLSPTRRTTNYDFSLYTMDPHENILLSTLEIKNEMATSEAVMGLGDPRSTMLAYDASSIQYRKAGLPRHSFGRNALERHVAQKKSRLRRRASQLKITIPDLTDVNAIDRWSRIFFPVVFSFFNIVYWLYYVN
Chain of Gamma-aminobutyric acid receptor subunit alpha-1/alpha-2/beta-2/gamma-2 (P18507 whole entry): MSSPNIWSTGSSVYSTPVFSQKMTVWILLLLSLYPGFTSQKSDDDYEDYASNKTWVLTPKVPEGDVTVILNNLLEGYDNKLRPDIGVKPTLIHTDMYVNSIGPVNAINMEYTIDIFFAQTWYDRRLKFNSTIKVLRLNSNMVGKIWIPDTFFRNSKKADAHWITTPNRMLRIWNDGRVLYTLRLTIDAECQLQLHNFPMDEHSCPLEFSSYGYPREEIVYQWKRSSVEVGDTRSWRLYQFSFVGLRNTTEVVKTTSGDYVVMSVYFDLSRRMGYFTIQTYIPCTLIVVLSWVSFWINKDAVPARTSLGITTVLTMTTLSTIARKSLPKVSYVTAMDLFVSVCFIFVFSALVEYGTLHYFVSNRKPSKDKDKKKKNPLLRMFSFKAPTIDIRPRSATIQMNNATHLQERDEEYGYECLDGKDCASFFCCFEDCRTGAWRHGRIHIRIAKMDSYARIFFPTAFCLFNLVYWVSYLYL
Chain of Gamma-aminobutyric acid receptor subunit alpha-1/alpha-2/beta-2/gamma-2 (P47869 whole entry): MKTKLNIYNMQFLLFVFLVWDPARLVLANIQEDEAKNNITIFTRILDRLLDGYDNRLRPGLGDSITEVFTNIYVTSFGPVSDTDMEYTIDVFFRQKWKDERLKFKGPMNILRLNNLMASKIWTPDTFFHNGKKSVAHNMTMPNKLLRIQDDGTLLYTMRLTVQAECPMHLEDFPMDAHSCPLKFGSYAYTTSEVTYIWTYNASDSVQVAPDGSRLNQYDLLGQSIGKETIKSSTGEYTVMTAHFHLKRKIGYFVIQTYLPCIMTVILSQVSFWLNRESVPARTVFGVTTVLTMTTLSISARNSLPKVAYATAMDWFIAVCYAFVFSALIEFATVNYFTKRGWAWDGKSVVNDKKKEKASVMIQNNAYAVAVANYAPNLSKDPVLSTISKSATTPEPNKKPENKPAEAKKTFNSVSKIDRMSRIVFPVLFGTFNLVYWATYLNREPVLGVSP
The next assay has as its target T3, Progesterone receptor (Homo sapiens, UniProt P06401).
T3 sequence (P06401 whole entry): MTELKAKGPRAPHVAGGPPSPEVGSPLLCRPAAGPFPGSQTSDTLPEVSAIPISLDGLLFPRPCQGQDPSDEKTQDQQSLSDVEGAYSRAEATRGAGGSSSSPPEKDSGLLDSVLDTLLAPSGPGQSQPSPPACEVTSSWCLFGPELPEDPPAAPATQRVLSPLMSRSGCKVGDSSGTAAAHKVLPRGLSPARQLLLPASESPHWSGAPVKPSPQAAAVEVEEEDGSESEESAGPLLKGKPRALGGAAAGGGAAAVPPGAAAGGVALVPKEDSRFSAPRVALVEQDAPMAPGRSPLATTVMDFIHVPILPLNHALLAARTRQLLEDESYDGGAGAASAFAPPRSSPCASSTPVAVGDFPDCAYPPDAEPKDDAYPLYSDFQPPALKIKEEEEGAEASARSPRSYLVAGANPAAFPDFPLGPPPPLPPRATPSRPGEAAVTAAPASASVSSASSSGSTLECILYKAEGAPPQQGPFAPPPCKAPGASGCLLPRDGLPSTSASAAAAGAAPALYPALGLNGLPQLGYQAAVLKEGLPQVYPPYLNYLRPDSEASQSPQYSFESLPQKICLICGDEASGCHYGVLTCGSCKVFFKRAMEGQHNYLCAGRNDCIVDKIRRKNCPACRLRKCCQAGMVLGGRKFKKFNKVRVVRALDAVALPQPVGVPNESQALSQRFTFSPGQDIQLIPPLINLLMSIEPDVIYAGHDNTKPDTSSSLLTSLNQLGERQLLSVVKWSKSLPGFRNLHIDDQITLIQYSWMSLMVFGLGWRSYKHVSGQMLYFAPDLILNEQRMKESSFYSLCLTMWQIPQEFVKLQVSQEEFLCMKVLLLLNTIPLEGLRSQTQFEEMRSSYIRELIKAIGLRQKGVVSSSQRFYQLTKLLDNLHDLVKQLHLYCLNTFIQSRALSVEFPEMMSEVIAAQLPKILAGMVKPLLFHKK
Type of assay: functional.

For assay [4], the target named is T4, Muscarinic acetylcholine receptor M2 (Homo sapiens, UniProt P08172).
T4 sequence (P08172 whole entry): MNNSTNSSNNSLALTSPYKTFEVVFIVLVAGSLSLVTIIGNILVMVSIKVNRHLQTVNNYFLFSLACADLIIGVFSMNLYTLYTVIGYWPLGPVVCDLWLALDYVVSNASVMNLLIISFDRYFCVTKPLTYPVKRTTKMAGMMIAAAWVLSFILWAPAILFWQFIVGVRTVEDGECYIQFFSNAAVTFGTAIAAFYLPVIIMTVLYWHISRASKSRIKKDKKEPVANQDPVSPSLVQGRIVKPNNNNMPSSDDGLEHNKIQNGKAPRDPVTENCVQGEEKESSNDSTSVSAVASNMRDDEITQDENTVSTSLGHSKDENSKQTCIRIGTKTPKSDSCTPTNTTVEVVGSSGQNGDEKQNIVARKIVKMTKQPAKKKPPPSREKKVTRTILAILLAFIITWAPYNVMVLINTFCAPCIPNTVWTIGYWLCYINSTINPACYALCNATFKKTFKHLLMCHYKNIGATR
It counts as functional, cell-based.

In assay [5] the target is 3',5'-cyclic-AMP phosphodiesterase 4D (Homo sapiens, UniProt Q08499). Type of assay: functional.
Chain of 3',5'-cyclic-AMP phosphodiesterase 4D (Q08499 whole entry): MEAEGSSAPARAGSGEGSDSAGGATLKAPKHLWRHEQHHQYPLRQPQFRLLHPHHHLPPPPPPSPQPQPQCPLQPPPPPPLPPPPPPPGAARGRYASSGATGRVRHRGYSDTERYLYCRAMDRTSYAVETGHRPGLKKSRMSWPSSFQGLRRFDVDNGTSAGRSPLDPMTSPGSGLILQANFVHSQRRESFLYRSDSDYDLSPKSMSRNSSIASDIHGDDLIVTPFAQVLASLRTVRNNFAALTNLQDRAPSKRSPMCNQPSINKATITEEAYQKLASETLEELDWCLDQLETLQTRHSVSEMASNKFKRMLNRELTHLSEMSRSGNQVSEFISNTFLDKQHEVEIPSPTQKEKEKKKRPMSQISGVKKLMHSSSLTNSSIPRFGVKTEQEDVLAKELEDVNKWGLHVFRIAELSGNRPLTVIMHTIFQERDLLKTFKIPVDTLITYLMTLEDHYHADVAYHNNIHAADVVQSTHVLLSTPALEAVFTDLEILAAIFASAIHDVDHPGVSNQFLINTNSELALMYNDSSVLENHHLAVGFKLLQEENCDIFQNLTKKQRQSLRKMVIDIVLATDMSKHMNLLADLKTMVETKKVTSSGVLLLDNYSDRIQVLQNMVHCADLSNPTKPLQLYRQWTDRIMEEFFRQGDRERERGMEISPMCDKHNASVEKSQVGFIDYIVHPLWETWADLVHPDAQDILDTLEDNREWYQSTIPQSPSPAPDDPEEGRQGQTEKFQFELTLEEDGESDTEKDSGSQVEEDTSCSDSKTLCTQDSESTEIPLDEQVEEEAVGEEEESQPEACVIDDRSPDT
Another assay has as its target Histamine H2 receptor (Homo sapiens, UniProt P25021). It counts as functional, cell-based.
Note: assay procedure not described here.

Chain of Motilin receptor (O43193 whole entry): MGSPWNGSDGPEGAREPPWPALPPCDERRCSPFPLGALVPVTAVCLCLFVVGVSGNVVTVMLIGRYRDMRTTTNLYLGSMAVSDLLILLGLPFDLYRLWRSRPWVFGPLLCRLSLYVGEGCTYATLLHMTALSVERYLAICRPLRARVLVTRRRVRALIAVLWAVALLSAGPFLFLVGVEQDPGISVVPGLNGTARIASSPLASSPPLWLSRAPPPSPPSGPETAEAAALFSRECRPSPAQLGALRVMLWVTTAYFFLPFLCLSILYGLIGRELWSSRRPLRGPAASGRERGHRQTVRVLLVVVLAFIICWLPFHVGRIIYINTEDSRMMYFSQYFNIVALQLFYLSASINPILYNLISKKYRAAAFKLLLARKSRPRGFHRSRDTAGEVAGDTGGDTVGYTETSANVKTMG
Chain of D(3) dopamine receptor (P35462 whole entry): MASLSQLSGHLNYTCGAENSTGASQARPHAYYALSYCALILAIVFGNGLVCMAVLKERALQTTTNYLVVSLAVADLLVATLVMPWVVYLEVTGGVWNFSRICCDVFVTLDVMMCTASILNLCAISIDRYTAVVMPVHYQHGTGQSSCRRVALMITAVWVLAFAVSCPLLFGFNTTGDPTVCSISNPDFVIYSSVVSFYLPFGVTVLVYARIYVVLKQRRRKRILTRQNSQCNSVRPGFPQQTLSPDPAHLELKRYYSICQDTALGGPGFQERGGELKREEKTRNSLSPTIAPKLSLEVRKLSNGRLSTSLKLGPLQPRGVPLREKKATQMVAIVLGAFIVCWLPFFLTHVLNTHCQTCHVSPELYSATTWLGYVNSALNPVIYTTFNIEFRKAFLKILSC
Chain of Mu-type opioid receptor (P35372 whole entry): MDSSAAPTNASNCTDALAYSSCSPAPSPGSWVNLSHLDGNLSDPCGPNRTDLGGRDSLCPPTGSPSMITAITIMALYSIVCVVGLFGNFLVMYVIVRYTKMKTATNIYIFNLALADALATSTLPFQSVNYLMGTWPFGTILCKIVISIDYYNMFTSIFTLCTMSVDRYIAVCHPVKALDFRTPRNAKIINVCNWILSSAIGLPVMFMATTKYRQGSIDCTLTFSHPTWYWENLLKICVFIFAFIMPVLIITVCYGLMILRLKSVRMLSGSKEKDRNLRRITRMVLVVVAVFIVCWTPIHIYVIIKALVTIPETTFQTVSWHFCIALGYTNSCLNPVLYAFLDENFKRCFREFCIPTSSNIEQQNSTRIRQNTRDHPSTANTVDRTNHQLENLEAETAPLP
Chain of Histamine H2 receptor (P25021 whole entry): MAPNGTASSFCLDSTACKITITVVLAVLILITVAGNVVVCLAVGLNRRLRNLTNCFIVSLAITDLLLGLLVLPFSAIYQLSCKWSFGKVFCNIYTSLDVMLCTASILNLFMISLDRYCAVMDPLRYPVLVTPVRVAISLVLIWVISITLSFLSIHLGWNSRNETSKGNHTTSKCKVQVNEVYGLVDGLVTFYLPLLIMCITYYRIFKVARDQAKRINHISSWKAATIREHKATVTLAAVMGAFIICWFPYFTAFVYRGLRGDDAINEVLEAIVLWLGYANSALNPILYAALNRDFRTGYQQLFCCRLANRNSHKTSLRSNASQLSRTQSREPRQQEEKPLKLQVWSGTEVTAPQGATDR

One may read the AC50 as the concentration giving half of the maximal activity seen. A high value points to weaker potency. For the molecule `C#Cc1cccc(Nc2ncnc3cc(OCCOC)c(OCCOC)cc23)c1` [ERLOTINIB], the AC50 is greater than 30 µM in assay [1]; greater than 30 µM in assay [2]; 29 µM on Mu-type opioid receptor; greater than 30 µM at Motilin receptor; greater than 30 µM on Prothrombin; greater than 30 µM in assay [3]. For the same molecule, the AC50 (on Progesterone receptor; on D(3) dopamine receptor; in assay [4]; in [5]) was greater than 30 µM in each case.

Regarding `CC(=O)/N=c1/sc(S(N)(=O)=O)nn1C` [METHAZOLAMIDE], the AC50 is greater than 30 µM in assay [1]; greater than 10 µM on Histamine H2 receptor; greater than 10 µM in [2]; greater than 30 µM on Mu-type opioid receptor; greater than 10 µM at Motilin receptor; greater than 30 µM at Prothrombin. Also, the AC50 in assay [3] is greater than 30 µM; at Progesterone receptor it was greater than 10 µM; at D(3) dopamine receptor, greater than 30 µM; in assay [4], greater than 10 µM; in assay [5], greater than 30 µM.

For the molecule `CC(=O)Oc1ccccc1C(=O)Nc1ncc([N+](=O)[O-])s1` [NITAZOXANIDE], the concentration at half-maximal activity (AC50) in assay [1] was greater than 30 µM; on Histamine H2 receptor it was greater than 30 µM; at Motilin receptor, 13 µM; on Prothrombin, greater than 30 µM; in assay [3] it was greater than 30 µM; on Progesterone receptor it was greater than 30 µM. Moreover, the values for the AC50 (at D(3) dopamine receptor; in assay [4]; in assay [5]) were 25 µM, 1.4 µM and greater than 30 µM, respectively.

Source of the values: ChEMBL document CHEMBL5291721, “A preclinical secondary pharmacology resource illuminates target-adverse drug reaction associations of marketed drugs” (Nat Commun, 2023).
